In paper PMC3328449, “Inhibition of Diacylglycerol–Sensitive TRPC Channels by Synthetic and Natural Steroids” (PLoS ONE, 2012):

How the values were obtained:
hTRPC3 = molecular target: T1, hTRPC3 (Homo sapiens, UniProt Q13507); assay: Whole-cell patch clamp, AlF4- evoked TRPC3 currents; format: cell-based; conditions: 10 µM, AlF4- infusion
T1 construct: expressed in transfected cells
T1 sequence (Q13507 1-848 isoform Q13507-3): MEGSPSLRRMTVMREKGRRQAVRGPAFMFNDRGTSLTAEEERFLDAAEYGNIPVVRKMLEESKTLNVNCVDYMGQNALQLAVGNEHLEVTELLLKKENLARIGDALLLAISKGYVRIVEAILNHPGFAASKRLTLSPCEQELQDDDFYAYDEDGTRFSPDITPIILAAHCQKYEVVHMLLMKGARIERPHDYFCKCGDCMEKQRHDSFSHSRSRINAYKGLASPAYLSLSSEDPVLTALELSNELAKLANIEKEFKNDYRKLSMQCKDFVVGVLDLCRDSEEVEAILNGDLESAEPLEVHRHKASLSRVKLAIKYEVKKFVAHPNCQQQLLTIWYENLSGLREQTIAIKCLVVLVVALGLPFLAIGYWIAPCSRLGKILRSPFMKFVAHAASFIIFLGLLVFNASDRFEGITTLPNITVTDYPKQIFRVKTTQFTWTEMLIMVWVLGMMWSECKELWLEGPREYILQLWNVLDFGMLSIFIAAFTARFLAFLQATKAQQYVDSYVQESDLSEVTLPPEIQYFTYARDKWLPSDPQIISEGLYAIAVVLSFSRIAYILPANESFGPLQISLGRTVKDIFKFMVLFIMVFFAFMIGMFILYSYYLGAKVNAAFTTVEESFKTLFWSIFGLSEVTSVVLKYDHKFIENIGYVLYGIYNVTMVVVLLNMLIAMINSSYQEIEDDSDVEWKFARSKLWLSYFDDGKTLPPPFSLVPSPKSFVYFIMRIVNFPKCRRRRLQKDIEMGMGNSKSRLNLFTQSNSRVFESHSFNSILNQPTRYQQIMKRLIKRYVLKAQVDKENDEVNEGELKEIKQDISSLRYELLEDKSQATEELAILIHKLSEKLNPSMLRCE
Text: hTRPC3 (GenBank accession number NM_003305) was stably expressed in chinese hamster ovary (CHO) cells using a proprietary high expression vector (Steinbeis –Transferzentrum für Angewandte Biologische Chemie, Mannheim, Germany).
The whole-cell patch clamp technique was employed to measure ion currents from single cells. Heat-polished patch pipettes with resistances of 2–4 MΩ were pulled from borosilicate glass capillaries (Hilgenberg, Malsfeld, Germany) using a DMZ-Universal puller (Zeitz-Instruments, Munich, Germany) and filled with standard intracellular solution containing: 120 mM CsOH, 120 mM gluconic acid, 2 mM MgCl2, 3 mM CaCl2, 5 mM Cs4-BAPTA, 10 mM HEPES (pH 7.4 adjusted with gluconic acid). For agonist-independent stimulation of TRPC currents the intracellular solution was supplemented with 30 µM AlCl3 and 10 mM NaF and cells were infused with AlF4 ^− through the patch pipette. […]
Cells grown on poly-L-lysine-coated coverslips were continuously superfused with extracellular solution and substances were applied using an ALA BPS-8 perfusion system (ALA Scientific Instruments, Westbury, USA). […] Cells were held at −70 mV, and current-voltage (I–V) relationships were routinely measured every 2 or 3 s by applying voltage ramps (180 ms) from −100 mV to +80 mV. […]

A7r5 cells = assay: Fura-2 measurement of AVP-induced Ca2+ release in A7r5 cells; format: cell-based; conditions: 10 µM, 5 min pre-incubation, calcium-free solution, 100 nM AVP
Experimental: A7r5 cells (ATCC, Rockville, USA) were maintained in DMEM (with glutaMAX I, 4.5 g/l glucose and […] sodium pyruvate), supplemented with 10% (v/v) fetal bovine serum (PAA, Pasching, Austria). Cells grown on poly-L-lysine-coated 24-mm glass coverslips were loaded in cell culture medium supplemented with 2 µM fura-2 AM (30 min, 37°C) and subsequently allowed to de-esterify in standard extracellular solution (15 min, 37°C). Changes in [Ca^2+]i were measured using a monochromator-based imaging system (T.I.L.L. Photonics, Gräfelfing, Germany) mounted on an inverted Axiovert 200 microscope (Zeiss, Göttingen, Germany). Fluorescence was excited alternating at 340 nm and 380 nm, long-pass filtered at 440 nm and captured at 2 s intervals. The 340/380 nm excitation ratio of selected cell areas was calculated with T.I.L.L. vision 4.0 software (T.I.L.L. Photonics) after correction for background fluorescence.

[1] = Solubility in perfusate (remark); format: physicochemical; conditions: aortic ring experiments; higher concentrations could not be tested

## C#C[C@]1(OC(C)=O)CC[C@H]2[C@@H]3CCC4=CC(=NO)CC[C@@H]4[C@H]3CC[C@@]21CC (mixture of isomers) [norgestimate]
hTRPC3
  Inhibition of TRPC3 currents: almost completely inhibited
A7r5 cells
  Sensitivity of AVP-induced Ca2+ release: not sensitive
[1]
  Solubility: limited solubility
